The source of these data is patent US9289509B2, “Uses of immunoconjugates targeting CD138” (Biotest AG, priority 2009, dated 2016).

One test has as its system Jurkat. In words: Sensitivity of cell lines towards BT062 (IC50). Format: cell-based. Conditions: Jurkat (T cell lymphoma), 0 CD138 receptors/cell.
The next test has as its system OPM-2 cells. In words: FACS analysis of binding to OPM-2 cells. Conditions: mean fluorescence vs concentration (FIG. 6). The source says:
OPM-2 cells are plasma cell leukemia cell lines showing highly expressing CD138. […] The cells were washed and CD138-bound antibody or conjugates were detected using a fluorescence-labeled secondary antibody in FACS analysis. The mean fluorescence measured in these experiments was plotted against the antibody concentration.
In FIG. 6, the mean fluorescences as measure for the amount of cell bound antibody is plotted against different antibody or conjugate concentrations.
(In general: In flow cytometry, cells or beads pass a laser one at a time.)

In general, IC50 refers to the concentration at which inhibition is half-maximal. A lower IC50 goes with inhibition by little substance.

Turning to BT062, the IC50 in the test on Jurkat stood at 0.039 µM. For the same substance, the binding characteristics entry with OPM-2 cells was “very similar binding characteristics”.
